Data as given in ChEMBL document CHEMBL1201862, “PubChem BioAssay data set” (2004).
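The compound was tested at five concentrations on cells cultured in 96-well plates, with a 48-hour exposure period. Here, GI50 denotes the concentration required for 50% inhibition of growth.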 The source made the active and inactive calls. No stated cut-off is given here; in the data, active = GI50 up to about 1.1 µM and inactive = higher.

Experiments:
Assay in all cases: inhibition of tumour cell growth, NCI panel, 48 h
SK-MEL-28 = tested on: SK-MEL-28
OVCAR-8 = tested on: OVCAR-8
ACHN = tested on: ACHN
SK-MEL-2 = tested on: SK-MEL-2
MOLT-4 = tested on: MOLT-4
SN12C = tested on: SN12C
K562 = tested on: K562
OVCAR-5 = tested on: OVCAR-5
A549 = tested on: A549
RPMI-8226 = tested on: RPMI-8226
NCI-H522 = tested on: NCI-H522
TK-10 = tested on: TK-10
OVCAR-4 = tested on: OVCAR-4
SF-268 = tested on: SF-268
Malme-3M = tested on: Malme-3M
HL-60 = tested on: HL-60

| SMILES | GI50 (SK-MEL-28) | GI50 (OVCAR-8) | GI50 (ACHN) | GI50 (SK-MEL-2) | GI50 (MOLT-4) | GI50 (SN12C) | GI50 (K562) | GI50 (OVCAR-5) | GI50 (A549) | GI50 (RPMI-8226) | GI50 (NCI-H522) | GI50 (TK-10) | GI50 (OVCAR-4) | GI50 (SF-268) | GI50 (Malme-3M) | GI50 (HL-60) |
| --- | --- | --- | --- | --- | --- | --- | --- | --- | --- | --- | --- | --- | --- | --- | --- | --- |
| C/C(=C\CBr)CCC(Br)C(C)(C)Cl (configuration not stated) | > 100 µM (inactive) | > 100 µM (inactive) | > 100 µM (inactive) | > 100 µM (inactive) | > 100 µM (inactive) | > 100 µM (inactive) | > 100 µM (inactive) | > 100 µM (inactive) | > 100 µM (inactive) | > 100 µM (inactive) | > 100 µM (inactive) | > 100 µM (inactive) | > 100 µM (inactive) | > 100 µM (inactive) | > 100 µM (inactive) |  |
| COc1ccc2c3c(c(C(=O)c4ccccc4)oc13)CCC2 | > 100 µM (inactive) | > 100 µM (inactive) | > 100 µM (inactive) |  | > 100 µM (inactive) | > 100 µM (inactive) | > 100 µM (inactive) |  | > 100 µM (inactive) | > 100 µM (inactive) |  | > 100 µM (inactive) | > 100 µM (inactive) |  |  | > 100 µM (inactive) |
| CCOC(=O)C(=O)Nc1c(C)cccc1C(C)(C)C | > 100 µM (inactive) | > 100 µM (inactive) | > 100 µM (inactive) | > 100 µM (inactive) | > 100 µM (inactive) | > 100 µM (inactive) | > 100 µM (inactive) | > 100 µM (inactive) |  | > 100 µM (inactive) | > 100 µM (inactive) | > 100 µM (inactive) | 73.3 µM (inactive) | > 100 µM (inactive) | > 100 µM (inactive) |  |
| C=C(C)C12CC3CC(/C(=N/O)C(C1)/C3=N\O)[C@@]2(C)O (some centres not stated) | > 100 µM (inactive) | > 100 µM (inactive) | > 100 µM (inactive) | > 100 µM (inactive) | > 100 µM (inactive) | > 100 µM (inactive) | > 100 µM (inactive) | > 100 µM (inactive) | > 100 µM (inactive) | > 100 µM (inactive) | > 100 µM (inactive) | > 100 µM (inactive) |  | > 100 µM (inactive) | > 100 µM (inactive) | > 100 µM (inactive) |
| O=C(c1ccc(Cl)cc1)c1ccc(OCCSCCCCCCCCCCSCCOc2ccc(C(=O)c3ccc(Cl)cc3)cc2)cc1 | > 100 µM (inactive) | > 100 µM (inactive) | > 100 µM (inactive) | > 100 µM (inactive) | > 100 µM (inactive) | > 100 µM (inactive) | > 100 µM (inactive) | > 100 µM (inactive) | > 100 µM (inactive) | > 100 µM (inactive) | > 100 µM (inactive) | > 100 µM (inactive) |  | > 100 µM (inactive) | > 100 µM (inactive) | > 100 µM (inactive) |
| CCOc1ccc2c(c1)[n+]([O-])c(-c1ccc([N+](=O)[O-])cc1)c(N)[n+]2[O-] | > 100 µM (inactive) | > 100 µM (inactive) | > 100 µM (inactive) | > 100 µM (inactive) | 52.2 µM (inactive) | > 100 µM (inactive) | > 100 µM (inactive) | > 100 µM (inactive) | > 100 µM (inactive) |  | 56.4 µM (inactive) |  | > 100 µM (inactive) | > 100 µM (inactive) | > 100 µM (inactive) | 96.8 µM (inactive) |
| N=C(N)N/N=C/c1oc(-c2ccc(S(=O)(=O)O)o2)c(-c2ccc(S(=O)(=O)O)o2)c1[N+](=O)[O-] | > 100 µM (inactive) | > 100 µM (inactive) | > 100 µM (inactive) | > 100 µM (inactive) | > 100 µM (inactive) | > 100 µM (inactive) | > 100 µM (inactive) | > 100 µM (inactive) | > 100 µM (inactive) |  | > 100 µM (inactive) | > 100 µM (inactive) | > 100 µM (inactive) | > 100 µM (inactive) | > 100 µM (inactive) | > 100 µM (inactive) |
| CC(C)(C)OC(=O)NC1CCC[C@H]1O (some centres not stated) | > 100 µM (inactive) | > 100 µM (inactive) | > 100 µM (inactive) | > 100 µM (inactive) | > 100 µM (inactive) | > 100 µM (inactive) | > 100 µM (inactive) | > 100 µM (inactive) | > 100 µM (inactive) |  | > 100 µM (inactive) | > 100 µM (inactive) | > 100 µM (inactive) | > 100 µM (inactive) | 0.265 µM (active) |  |
| CCCCc1c2c(nc3c1CC/C(=C\c1ccc([N+](=O)[O-])cc1)C3=O)CCCC2 | 1.69 µM (inactive) | 1.88 µM (inactive) | 1.78 µM (inactive) |  | 1.77 µM (inactive) | 1.88 µM (inactive) | 2.17 µM (inactive) |  | 4.41 µM (inactive) | 1.7 µM (inactive) | 1.51 µM (inactive) | 1.66 µM (inactive) |  | 1.98 µM (inactive) | 2 µM (inactive) |  |
| Cc1ccc(NC(=O)C(=O)C(C(=O)c2ccc3ccccc3c2)C2OC(=O)c3ccccc32)c(C)c1 (configuration not stated) | 5.69 µM (inactive) | 7.67 µM (inactive) | 23.6 µM (inactive) | 13 µM (inactive) | 3.31 µM (inactive) | 15.5 µM (inactive) | 10.4 µM (inactive) | 16.3 µM (inactive) | 18 µM (inactive) | 5.87 µM (inactive) | 12.8 µM (inactive) | 20.3 µM (inactive) | 6.76 µM (inactive) | 3.68 µM (inactive) | 8.99 µM (inactive) |  |
| COC(=O)/C=C(/C(=O)OC)C1(C)c2cc(C(=O)OC)c(C(=O)OC)c(N)c2C(=N)N1c1ccccc1 (configuration not stated) | 18.1 µM (inactive) | 17.4 µM (inactive) | 18 µM (inactive) | 36.7 µM (inactive) | 17.8 µM (inactive) | 19.6 µM (inactive) | 18.7 µM (inactive) | 41.4 µM (inactive) | 42 µM (inactive) | 21.5 µM (inactive) | 14.2 µM (inactive) | 41.4 µM (inactive) |  | 19.3 µM (inactive) | 17.4 µM (inactive) | 14.1 µM (inactive) |
| CCOC(=O)c1cccc(=O)c(C(=O)OCC)c1 | 38.6 µM (inactive) | 43.4 µM (inactive) | 63.7 µM (inactive) | 47 µM (inactive) | 35.7 µM (inactive) |  | 36.1 µM (inactive) | > 100 µM (inactive) | 46.9 µM (inactive) | 29.3 µM (inactive) |  | > 100 µM (inactive) | 48.1 µM (inactive) |  | 66.1 µM (inactive) | 26.6 µM (inactive) |
| CC(C)(C)c1cc(C#N)c2c(c1)C(=O)OC2(c1ccccc1)c1ccccc1C#N (configuration not stated) | > 100 µM (inactive) | > 100 µM (inactive) | > 100 µM (inactive) | > 100 µM (inactive) | 23.8 µM (inactive) | > 100 µM (inactive) | 45.4 µM (inactive) | > 100 µM (inactive) | > 100 µM (inactive) |  | 12.3 µM (inactive) | > 100 µM (inactive) | > 100 µM (inactive) | > 100 µM (inactive) | > 100 µM (inactive) | 7.38 µM (inactive) |
| O=C(NC1CCCCC1)c1c(O)[nH]c(=S)[nH]c1=O | > 100 µM (inactive) | 89.7 µM (inactive) | 83 µM (inactive) | > 100 µM (inactive) | > 100 µM (inactive) | > 100 µM (inactive) |  | > 100 µM (inactive) | 52.4 µM (inactive) | > 100 µM (inactive) | > 100 µM (inactive) | > 100 µM (inactive) | > 100 µM (inactive) | > 100 µM (inactive) | > 100 µM (inactive) |  |
